Test results from ChEMBL document CHEMBL1153640, “Selective naphthalene H(3) receptor inverse agonists with reduced potential to induce phospholipidosis and their quinoline analogs” (Bioorg Med Chem Lett, 2009).
One block for each compound: values may come before it.

How the values were obtained:
[1] = Dissociation constant, pKa of the compound; type: physicochemical
[2] = target: T1, Histamine H3 receptor (Homo sapiens, UniProt Q9Y5N1); test: Inhibition of human histamine H3 expressed in CHO cells by saturation binding experiment; type: cell-based
[3] = Lipophilicity, log D at pH 7.4; type: physicochemical; details: buffer
[4] = Metabolic stability in rat liver microsomes assessed as clearance per mg of protein; type: ADME, Microsome
[5] = target: Cytochrome P450 2C9 (Homo sapiens, UniProt P11712); test: Inhibition of CYP2C9; type: ADME
[6] = Solubility in 10 mM DMSO by lyophilizated solubility assay; type: physicochemical
[7] = Genotoxicity in mammalian cells assessed as increase in number of micronucleated cells by micronucleus test; type: cell-based
[8] = target: Histamine H4 receptor (Homo sapiens) (UniProt Q9H3N8); test: Inhibition of human histamine H4 receptor at 3 uM
[9] = target: Cytochrome P450 3A4 (Homo sapiens, UniProt P08684); test: Inhibition of CYP3A4; type: ADME
[10] = Metabolic stability in human liver microsomes assessed as clearance per mg of protein; type: ADME, Microsome
[11] = target: Histamine H2 receptor (Homo sapiens) (UniProt P25021); test: Inhibition of human histamine H2 receptor at 3 uM
[12] = target: T1, Histamine H3 receptor; test: Inverse agonist activity at human histamine H3 receptor expressed in CHO cells by [35S]GTPgammaS binding assay; type: functional, cell-based
[13] = system: Salmonella enterica subsp. enterica; test: Toxicity in Salmonella Typhimurium assessed as increase in number of revertant colonies by AMES microsuspension assay; type: organism-based; details: salmonella enterica subsp. enterica serovar typhimurium
[14] = target: T2, Cytochrome P450 1A2 (Homo sapiens, UniProt P05177); test: Inhibition of CYP1A2; type: ADME
T2 sequence (P05177 whole entry): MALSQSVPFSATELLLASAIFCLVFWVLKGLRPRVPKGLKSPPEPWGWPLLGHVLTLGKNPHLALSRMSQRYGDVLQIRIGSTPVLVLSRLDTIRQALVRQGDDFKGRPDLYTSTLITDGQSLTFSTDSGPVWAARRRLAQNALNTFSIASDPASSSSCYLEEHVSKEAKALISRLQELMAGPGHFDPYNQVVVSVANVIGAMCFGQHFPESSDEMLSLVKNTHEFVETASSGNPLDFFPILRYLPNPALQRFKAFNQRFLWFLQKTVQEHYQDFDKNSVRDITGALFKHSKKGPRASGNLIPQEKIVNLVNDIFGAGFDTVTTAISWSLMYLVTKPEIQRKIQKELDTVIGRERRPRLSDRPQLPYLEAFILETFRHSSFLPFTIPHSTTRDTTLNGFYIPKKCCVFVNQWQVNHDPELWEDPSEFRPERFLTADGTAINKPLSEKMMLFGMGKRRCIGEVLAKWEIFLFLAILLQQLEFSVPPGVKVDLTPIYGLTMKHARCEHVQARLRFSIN

[15] = target: Cytochrome P450 2C19 (Homo sapiens, UniProt P33261); test: Inhibition of CYP2C19; type: ADME
[16] = Membrane permeability by PAMPA; type: ADME; details: read-out: permeability
[17] = target: Cytochrome P450 2D6 (Homo sapiens, UniProt P10635); test: Inhibition of CYP2D6; type: ADME
[18] = target: Histamine H1 receptor (Homo sapiens) (UniProt P35367); test: Inhibition of human histamine H1 receptor at 3 uM
[19] = system: Phospholipidosis; test: In vitro phospholipidosis in fibroblasts; type: ADME, cell-based; details: fibroblast

Sequence of Histamine H2 receptor (Homo sapiens) (P25021 whole entry): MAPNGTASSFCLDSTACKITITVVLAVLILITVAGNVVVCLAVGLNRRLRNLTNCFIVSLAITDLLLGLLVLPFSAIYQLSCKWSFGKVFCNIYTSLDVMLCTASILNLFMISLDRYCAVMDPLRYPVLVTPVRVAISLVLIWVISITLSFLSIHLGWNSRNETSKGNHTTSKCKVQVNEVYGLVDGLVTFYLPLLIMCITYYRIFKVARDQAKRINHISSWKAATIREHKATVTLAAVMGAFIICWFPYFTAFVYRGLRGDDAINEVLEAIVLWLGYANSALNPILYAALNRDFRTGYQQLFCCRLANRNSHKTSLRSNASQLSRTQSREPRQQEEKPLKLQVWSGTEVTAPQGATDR
Sequence of Histamine H1 receptor (Homo sapiens) (P35367 whole entry): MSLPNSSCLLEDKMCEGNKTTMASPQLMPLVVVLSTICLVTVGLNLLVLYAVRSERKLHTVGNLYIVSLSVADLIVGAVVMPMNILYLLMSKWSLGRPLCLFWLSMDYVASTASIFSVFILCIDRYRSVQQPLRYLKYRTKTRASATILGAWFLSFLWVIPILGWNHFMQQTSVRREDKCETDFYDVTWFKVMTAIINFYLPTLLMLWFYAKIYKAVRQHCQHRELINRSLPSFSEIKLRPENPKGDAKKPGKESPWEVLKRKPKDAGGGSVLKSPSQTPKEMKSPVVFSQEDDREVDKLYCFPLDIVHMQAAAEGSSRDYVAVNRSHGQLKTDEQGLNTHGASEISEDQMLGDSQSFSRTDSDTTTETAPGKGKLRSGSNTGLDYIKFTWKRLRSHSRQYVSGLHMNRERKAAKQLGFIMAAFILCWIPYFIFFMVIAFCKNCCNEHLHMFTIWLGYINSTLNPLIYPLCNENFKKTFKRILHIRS
T1 sequence (Q9Y5N1 whole entry): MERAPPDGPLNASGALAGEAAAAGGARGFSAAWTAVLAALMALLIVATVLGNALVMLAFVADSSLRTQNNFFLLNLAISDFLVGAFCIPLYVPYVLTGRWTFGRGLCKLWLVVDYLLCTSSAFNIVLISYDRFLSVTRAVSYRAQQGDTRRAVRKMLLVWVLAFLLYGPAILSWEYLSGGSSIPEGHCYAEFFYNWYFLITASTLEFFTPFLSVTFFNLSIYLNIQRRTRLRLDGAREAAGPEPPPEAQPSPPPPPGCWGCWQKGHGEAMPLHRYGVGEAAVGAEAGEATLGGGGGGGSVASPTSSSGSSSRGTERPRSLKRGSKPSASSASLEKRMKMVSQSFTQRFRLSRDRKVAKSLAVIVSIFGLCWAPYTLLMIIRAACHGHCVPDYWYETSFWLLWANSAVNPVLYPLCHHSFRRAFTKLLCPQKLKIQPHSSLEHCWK
Sequence of Cytochrome P450 2D6 (P10635 whole entry): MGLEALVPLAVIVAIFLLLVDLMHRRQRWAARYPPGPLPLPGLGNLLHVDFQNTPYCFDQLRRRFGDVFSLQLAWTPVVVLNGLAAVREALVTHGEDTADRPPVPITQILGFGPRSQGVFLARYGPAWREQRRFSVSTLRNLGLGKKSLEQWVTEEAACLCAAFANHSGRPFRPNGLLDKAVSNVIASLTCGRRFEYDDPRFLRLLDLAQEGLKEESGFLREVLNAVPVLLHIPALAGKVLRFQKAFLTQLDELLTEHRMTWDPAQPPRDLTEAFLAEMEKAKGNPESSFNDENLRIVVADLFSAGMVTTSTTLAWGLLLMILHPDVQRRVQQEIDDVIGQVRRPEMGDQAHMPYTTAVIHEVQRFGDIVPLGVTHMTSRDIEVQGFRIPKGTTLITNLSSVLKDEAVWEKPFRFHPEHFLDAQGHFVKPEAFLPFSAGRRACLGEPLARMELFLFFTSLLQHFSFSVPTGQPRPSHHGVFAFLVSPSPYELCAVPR
Sequence of Cytochrome P450 3A4 (P08684 whole entry): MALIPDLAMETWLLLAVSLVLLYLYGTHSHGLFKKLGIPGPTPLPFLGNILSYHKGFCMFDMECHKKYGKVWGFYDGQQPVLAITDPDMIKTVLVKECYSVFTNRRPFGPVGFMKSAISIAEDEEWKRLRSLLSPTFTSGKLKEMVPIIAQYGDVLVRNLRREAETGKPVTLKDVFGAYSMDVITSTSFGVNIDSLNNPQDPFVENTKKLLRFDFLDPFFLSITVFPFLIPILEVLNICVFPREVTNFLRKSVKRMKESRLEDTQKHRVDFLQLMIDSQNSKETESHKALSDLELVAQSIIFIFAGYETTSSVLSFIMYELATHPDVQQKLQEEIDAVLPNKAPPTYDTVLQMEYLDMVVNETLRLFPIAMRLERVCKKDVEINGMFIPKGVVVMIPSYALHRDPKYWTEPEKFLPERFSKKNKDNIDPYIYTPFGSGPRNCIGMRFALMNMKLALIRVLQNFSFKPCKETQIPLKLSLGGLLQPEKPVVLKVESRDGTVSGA
Sequence of Cytochrome P450 2C19 (P33261 whole entry): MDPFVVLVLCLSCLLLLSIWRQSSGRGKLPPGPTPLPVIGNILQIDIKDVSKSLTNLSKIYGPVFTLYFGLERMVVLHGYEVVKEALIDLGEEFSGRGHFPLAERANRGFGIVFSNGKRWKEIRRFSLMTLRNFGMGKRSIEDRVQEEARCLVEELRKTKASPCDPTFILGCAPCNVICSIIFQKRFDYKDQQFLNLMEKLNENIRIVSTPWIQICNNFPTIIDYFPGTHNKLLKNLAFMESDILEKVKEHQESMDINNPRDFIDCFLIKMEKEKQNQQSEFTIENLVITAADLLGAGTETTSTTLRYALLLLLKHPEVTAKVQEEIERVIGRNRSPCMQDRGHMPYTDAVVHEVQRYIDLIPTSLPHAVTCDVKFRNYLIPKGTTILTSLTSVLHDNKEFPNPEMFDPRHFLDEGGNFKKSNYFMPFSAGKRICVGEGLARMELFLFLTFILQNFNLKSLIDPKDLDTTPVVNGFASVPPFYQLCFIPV
Sequence of Cytochrome P450 2C9 (P11712 whole entry): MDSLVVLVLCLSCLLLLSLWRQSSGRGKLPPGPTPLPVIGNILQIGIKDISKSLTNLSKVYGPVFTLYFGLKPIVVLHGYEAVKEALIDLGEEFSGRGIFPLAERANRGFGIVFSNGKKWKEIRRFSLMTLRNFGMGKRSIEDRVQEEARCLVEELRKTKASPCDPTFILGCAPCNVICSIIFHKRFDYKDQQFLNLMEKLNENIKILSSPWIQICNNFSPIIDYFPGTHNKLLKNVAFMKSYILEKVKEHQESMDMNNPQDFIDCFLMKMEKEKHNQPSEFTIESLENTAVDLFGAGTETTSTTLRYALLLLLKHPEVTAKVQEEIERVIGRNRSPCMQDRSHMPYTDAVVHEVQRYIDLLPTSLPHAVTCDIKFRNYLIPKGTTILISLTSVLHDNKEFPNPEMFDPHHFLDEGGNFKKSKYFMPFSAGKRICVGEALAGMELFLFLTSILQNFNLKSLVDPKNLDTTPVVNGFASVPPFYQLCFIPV

Structure (SMILES): CC1CCN(C(=O)c2ccc3cc(OCCC4CCCN4C)ccc3c2)CC1 (stereo not given)
pKa [1]: 9.9

Structure (SMILES): CC(C)N1CCC(Oc2ccc3nc(C(=O)N4CCC4)ccc3c2)CC1
pKa [1]: 9.5 | Ki [2]: 62 nM

Structure (SMILES): CC1CCN(C(=O)c2ccc3cc(OCCCN4CCCCC4)ccc3c2)CC1
logD [3]: 2.47 | microsomal CLint [4]: 32 µL/min/mg | IC50 [5]: > 12000 nM | pKa [1]: 9.86 | solubility [6]: > 543 µg/mL | Activity [7]: Non-toxic | Ki [2]: 7 nM | inhibition [8]: 0% | IC50 [9]: > 12000 nM | microsomal CLint [10]: 33 µL/min/mg | inhibition [11]: -0.3% | EC50 [12]: 200 nM | Activity [13]: Non-toxic | IC50 [14]: > 12000 nM | IC50 [15]: > 12000 nM | Papp [16]: 2.6 ×10⁻⁶ cm/s | IC50 [17]: > 12000 nM

Structure (SMILES): O=C(c1ccc2cc(OCCCN3CCCCC3)ccc2n1)N1CCC1
pKa [1]: 9.4 | Ki [2]: 119 nM

Structure (SMILES): CC(C)N1CCC(Oc2ccc3cc(C(=O)N4CCOCC4)ccc3c2)CC1
logD [3]: 0.6 | microsomal CLint [4]: 3 µL/min/mg | IC50 [5]: > 41000 nM | pKa [1]: 9.3 | solubility [6]: > 558 µg/mL | Activity [7]: Non-toxic | Ki [2]: 40 nM | inhibition [18]: 1.6% | inhibition [8]: 0% | Phospholipidosis [19]: Not Active | IC50 [9]: > 41000 nM | microsomal CLint [10]: 23 µL/min/mg | inhibition [11]: -9.9% | EC50 [12]: 17 nM | Activity [13]: Non-toxic | IC50 [14]: > 41000 nM | IC50 [15]: > 41000 nM | Papp [16]: 2.5 ×10⁻⁶ cm/s | IC50 [17]: > 41000 nM

Structure (SMILES): CC1CCN(C(=O)c2ccc3cc(OC4CCN(C(C)C)C4)ccc3c2)CC1 (stereo not given)
pKa [1]: 9.4 | Ki [2]: 234 nM

Structure (SMILES): CC1CCN(C(=O)c2ccc3cc(OCCCN4CCOCC4)ccc3c2)CC1
pKa [1]: 7.8 | Ki [2]: 2000 nM

Structure (SMILES): CC1CCN(C(=O)c2ccc3cc(OC4CCN(C(C)C)CC4)ccc3c2)CC1
pKa [1]: 9.6 | Ki [2]: 34 nM | inhibition [18]: 0.9% | inhibition [8]: 0% | inhibition [11]: -8%

Structure (SMILES): CC(C)N1CCC(Oc2ccc3nc(C(=O)N4CCC[C@H]4C#N)ccc3c2)CC1
pKa [1]: 9.5 | Ki [2]: 87 nM

Structure (SMILES): CC(C)N1CCC(Oc2ccc3nc(C(=O)N4CCOCC4)ccc3c2)CC1
pKa [1]: 9.5 | Ki [2]: 238 nM

Structure (SMILES): COC1CCN(C(=O)c2ccc3cc(OC4CCN(C(C)C)CC4)ccc3c2)CC1
pKa [1]: 9.4 | Ki [2]: 62 nM

Structure (SMILES): CC(C)N1[C@@H]2CC(Oc3ccc4nc(C(=O)N5CCOCC5)ccc4c3)CC[C@H]1C2 (stereo not given in full)
pKa [1]: 8.97 | Ki [2]: 30 nM

Structure (SMILES): CC(C)N1CCC(Oc2ccc3cc(C(=O)N4CCCC4C)ccc3c2)CC1 (stereo not given)
pKa [1]: 9.71 | Ki [2]: 15 nM

The next lines start with the values.

pKa [1]: 9.6 | Ki [2]: 154 nM
Structure (SMILES): CC(C)N1CCC(Oc2ccc3cc(C(=O)N4CCC(CO)CC4)ccc3c2)CC1

pKa [1]: 9.5 | Ki [2]: 125 nM
Structure (SMILES): COC1CCN(C(=O)c2ccc3cc(OC4CCN(C(C)C)CC4)ccc3n2)CC1

pKa [1]: 9.6 | Ki [2]: 103 nM
Structure (SMILES): O=C(c1ccc2cc(OCCCN3CCCCC3)ccc2c1)N1CCC(CO)CC1

pKa [1]: 9.8 | Ki [2]: 36 nM | inhibition [18]: -4.5% | inhibition [8]: 0% | inhibition [11]: 4.1%
Structure (SMILES): CC(C)CN1CCC(Oc2ccc3cc(C(=O)N4CCC(C)CC4)ccc3c2)CC1

pKa [1]: 9.57 | Ki [2]: 30 nM
Structure (SMILES): COC1CCN(C(=O)c2ccc3cc(OCCCN4CCCCC4)ccc3c2)CC1

pKa [1]: 9.7 | Ki [2]: 300 nM
Structure (SMILES): CC1CCN(C(=O)c2ccc3cc(OCCCN4CCCCC4)ccc3n2)CC1
